Experimental data as given in US9382254B2, “Compounds and pharmaceutical compositions thereof for the treatment of cystic fibrosis” (Galapagos NV, priority 2013, dated 2016).

Assays:
CFTR G551D mutant = target: T1, CFTR G551D mutant (Homo sapiens, UniProt P13569, G551D); experiment: YFP-halide influx assay for the CFTR-G551D mutation; format: cell-based; conditions: HEK293 cells, forskolin 10.67 μM
T1 construct: expressed in transfected cells; host or cells: HEK293 (reverse transfection with plasmid)
T1 sequence (P13569 whole entry G551D): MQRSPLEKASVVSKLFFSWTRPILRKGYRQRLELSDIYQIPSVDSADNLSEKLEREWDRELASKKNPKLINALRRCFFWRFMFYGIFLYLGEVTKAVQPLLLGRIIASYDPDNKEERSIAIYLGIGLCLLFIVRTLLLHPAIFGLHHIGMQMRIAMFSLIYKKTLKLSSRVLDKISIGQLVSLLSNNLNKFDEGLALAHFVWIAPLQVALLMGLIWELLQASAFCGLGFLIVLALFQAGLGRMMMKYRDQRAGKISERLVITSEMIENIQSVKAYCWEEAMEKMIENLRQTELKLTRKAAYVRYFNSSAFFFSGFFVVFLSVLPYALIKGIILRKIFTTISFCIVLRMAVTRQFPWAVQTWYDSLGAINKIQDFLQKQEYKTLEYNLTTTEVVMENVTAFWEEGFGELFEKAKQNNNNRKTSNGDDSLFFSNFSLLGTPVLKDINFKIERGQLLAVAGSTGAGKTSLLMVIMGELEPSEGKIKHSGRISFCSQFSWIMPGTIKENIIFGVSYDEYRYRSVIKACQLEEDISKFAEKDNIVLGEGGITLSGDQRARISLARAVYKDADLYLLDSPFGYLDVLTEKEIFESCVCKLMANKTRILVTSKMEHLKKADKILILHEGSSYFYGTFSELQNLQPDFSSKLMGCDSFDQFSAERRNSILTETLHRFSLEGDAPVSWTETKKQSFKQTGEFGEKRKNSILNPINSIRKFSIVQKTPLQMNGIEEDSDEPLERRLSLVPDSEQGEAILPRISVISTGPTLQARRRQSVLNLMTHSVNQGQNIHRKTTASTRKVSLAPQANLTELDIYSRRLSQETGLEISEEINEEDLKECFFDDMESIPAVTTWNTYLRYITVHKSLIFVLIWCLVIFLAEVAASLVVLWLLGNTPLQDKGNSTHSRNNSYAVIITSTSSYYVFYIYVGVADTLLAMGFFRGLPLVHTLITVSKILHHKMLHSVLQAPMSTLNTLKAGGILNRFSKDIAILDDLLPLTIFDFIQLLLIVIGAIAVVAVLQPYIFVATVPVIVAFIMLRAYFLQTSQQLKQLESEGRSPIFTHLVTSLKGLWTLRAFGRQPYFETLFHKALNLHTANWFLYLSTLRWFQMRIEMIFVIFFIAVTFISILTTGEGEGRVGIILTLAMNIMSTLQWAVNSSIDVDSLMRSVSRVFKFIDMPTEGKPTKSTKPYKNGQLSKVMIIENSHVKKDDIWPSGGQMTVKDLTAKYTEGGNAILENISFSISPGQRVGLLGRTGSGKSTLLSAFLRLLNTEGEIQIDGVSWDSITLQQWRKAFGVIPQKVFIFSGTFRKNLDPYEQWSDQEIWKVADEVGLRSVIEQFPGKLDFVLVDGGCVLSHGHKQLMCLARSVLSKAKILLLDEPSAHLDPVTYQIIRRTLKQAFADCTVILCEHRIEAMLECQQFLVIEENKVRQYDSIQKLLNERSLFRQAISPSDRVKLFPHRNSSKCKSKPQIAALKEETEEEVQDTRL
Description: The YFP halide influx assay measures the functionality of the cystic fibrosis Transmembrane Conductance regulator (CFTR) channels. The assay is used to evaluate the capacity of compounds to increase the channel opening of existing mutant CFTR channels in the membrane. It makes use of the observation that the yellow fluorescent protein (YFP) variant YFP H148Q, I152L, […] has its fluorescence substantially quenched by halide ions like Cl^− and I^−. (Galietta, Haggie, & Verkman, 2001)
For this purpose, HEK293-cells are seeded in 96 well plates. During seeding, the cells are reverse-transfected with plasmid vectors that direct the expression of the CFTR G551D mutant and of the YFP reporter. Cells are incubated at 37° C., 5% CO2 for 24 hours so as to allow for sufficient expression of the CFTR protein.
(§1) The I^−-induced quenching of fluorescence is recorded immediately after injection of I^− for 7 seconds. The capacity of a compound to increase the channel opening is directly correlated with the decrease in fluorescence, and is expressed as (1-(fluorescence after 7 seconds (F)/fluorescence before injection (F0))) and an EC50 can be derived from a (1-F/F0) vs compound concentration plot.

CFTR ΔF508 mutant = target: T2, CFTR ΔF508 mutant (Homo sapiens, UniProt P13569, DEL508-508); experiment: YFP-halide influx assay for the CFTR-ΔF508 mutation (384 well, FDSS/μCell); format: cell-based; conditions: CFBE41o- cells, CFTR-ΔF508, 1×D-PBS, fluorescence after 36 seconds
T2 construct: expressed in transfected cells; host or cells: CFBE41o- (adenoviral transduction)
T2 sequence (P13569 with tags, fused parts or gaps DEL508-508): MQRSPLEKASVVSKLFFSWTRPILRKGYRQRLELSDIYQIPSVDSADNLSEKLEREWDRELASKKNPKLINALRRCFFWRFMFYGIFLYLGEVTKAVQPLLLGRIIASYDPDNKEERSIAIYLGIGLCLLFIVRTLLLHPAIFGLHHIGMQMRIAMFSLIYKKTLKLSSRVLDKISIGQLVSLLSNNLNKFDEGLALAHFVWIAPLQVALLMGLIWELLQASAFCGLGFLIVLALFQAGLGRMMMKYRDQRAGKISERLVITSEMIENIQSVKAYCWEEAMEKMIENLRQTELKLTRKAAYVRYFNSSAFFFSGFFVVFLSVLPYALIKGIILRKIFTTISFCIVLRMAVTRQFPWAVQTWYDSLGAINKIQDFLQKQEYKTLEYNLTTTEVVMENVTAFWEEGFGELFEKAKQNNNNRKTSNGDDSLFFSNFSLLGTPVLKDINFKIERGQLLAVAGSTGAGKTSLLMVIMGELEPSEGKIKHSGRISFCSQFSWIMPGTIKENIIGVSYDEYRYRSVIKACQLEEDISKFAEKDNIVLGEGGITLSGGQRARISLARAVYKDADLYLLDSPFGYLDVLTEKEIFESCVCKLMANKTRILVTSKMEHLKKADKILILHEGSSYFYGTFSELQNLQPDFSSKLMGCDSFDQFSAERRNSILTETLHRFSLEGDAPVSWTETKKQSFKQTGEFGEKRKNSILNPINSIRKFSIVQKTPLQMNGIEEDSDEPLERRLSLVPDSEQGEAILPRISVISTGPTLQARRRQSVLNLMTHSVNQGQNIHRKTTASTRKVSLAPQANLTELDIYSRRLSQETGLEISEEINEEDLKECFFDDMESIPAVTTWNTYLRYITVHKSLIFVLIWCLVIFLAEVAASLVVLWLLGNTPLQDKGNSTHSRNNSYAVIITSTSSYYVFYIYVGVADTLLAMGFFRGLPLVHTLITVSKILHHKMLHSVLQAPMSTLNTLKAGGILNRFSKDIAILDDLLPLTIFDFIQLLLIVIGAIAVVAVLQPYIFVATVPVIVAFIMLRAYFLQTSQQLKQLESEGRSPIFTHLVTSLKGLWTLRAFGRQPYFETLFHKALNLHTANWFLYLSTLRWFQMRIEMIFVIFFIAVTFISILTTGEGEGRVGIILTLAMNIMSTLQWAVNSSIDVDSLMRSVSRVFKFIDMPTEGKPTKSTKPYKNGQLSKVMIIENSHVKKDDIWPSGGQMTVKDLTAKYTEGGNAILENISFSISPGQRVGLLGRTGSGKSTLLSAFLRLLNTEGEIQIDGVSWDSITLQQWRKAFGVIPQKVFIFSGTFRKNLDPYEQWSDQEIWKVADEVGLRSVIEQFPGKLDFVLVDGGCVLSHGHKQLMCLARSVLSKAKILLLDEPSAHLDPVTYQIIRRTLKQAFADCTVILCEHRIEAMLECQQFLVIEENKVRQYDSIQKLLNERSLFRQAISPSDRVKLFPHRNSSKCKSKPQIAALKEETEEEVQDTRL
Description: The YFP halide influx assay measures the functionality of the cystic fibrosis Transmembrane Conductance regulator (CFTR) channels in the cystic fibrosis bronchial epithelium cell line CFBE41o-. The assay is used to evaluate the capacity of compounds to increase the open probability of existing CFTR channels in the membrane. It makes use of the observation that the yellow fluorescent protein (YFP) variant YFP H148Q, I152L has its fluorescence substantially quenched by halide ions like Cl— and I—. (Galietta, Haggie, & Verkman, 2001) (Nagai, et al., 2002)
For this purpose, CFBE41o-cells are seeded in 384 well plates (3000 CFBE cells/well). One day after seeding, the CFBE cells are transduced with adenoviral vectors that direct the expression of the CFTR ΔF508 mutant and of the YFP reporter. Cells are incubated at 27° C., 5% CO2 for 24 hours so as to allow for the proper folding and migration to the membrane of the CFTR channel or treated with a CFTR modulator during 24 h at 37° C.
as §1, with “I— induced” for “I^−-induced”, “recorded […]” for “recorded”, “I—” for “I^−”, “2 min on an FDSS/μCell (Hamamatsu).” for “7 seconds.”, “36” for “7”

Row | Compound | EC50 (CFTR G551D mutant) | EC50 (CFTR ΔF508 mutant) | EC50 (CFTR G551D mutant; class symbol)
1 | 2-[[(2S)-2-hydroxy-3-methyl- butanoyl]amino]-5-[4- (trifluoromethyl)phenyl] sulfonyl-thiophene-3- carboxamide [Compound 366] | 458 nM | – | 100 to 500 nM
2 | 5-(4-chlorophenyl)sulfonyl-2- [[(2S)-2-hydroxy-3- methyl-butanoyl]amino] thiophene-3-carboxamide [Compound 367] | 794 nM | – | 500 to 1000 nM
3 | 5-(4-fluoro-2-(methoxymethyl) phenylsulfonyl)-2-(2-hydroxy- 2-methylpropanamido) thiophene-3-carboxamide [Compound 300] | 1760 nM | – | > 1000 nM
4 | 5-[[5-bromo-6- (trifluoromethyl)-3-pyridyl] sulfonyl]-2-[(2-hydroxy-2- methyl-propanoyl)amino] thiophene-3-carboxamide [Compound 441] | – | – | > 1000 nM
5 | CC(O)C(=O)Nc1sc(S(=O)(=O)c2c(Cl)cc(F)cc2Cl)cc1C(N)=O (single isomer, unassigned; enantiomer 1) [Compound 354] | 1260 nM | – | –
6 | CC(C)Oc1ccc(S(=O)(=O)c2cc(C(N)=O)c(NC(=O)C(C)(C)O)s2)c(F)c1 [Compound 315, 5-(2-Fluoro-4-isopropoxy-benzenesulfonyl)-2-(2-hydroxy-2-methyl-propionylamino)-thiophene-3-carboxylic acid amide] | 828 nM | 42.4 nM | –
7 | CC(C)(CO)C(=O)Nc1sc(S(=O)(=O)c2ccc(OC(F)(F)F)cc2)cc1C(N)=O [Compound 446, 2-[(3-hydroxy-2,2-dimethyl-propanoyl)amino]-5-[4-(trifluoromethoxy)phenyl] sulfonyl-thiophene-3-carboxamide] | – | 41.3 nM | –

The next lines start with results.

Row | EC50 (CFTR G551D mutant) | EC50 (CFTR ΔF508 mutant) | Compound | EC50 (CFTR G551D mutant; class symbol)
8 | 1390 nM | 19.1 nM | CC(O)C(=O)Nc1sc(S(=O)(=O)c2ccc(Cl)cc2)cc1C(N)=O (single isomer, unassigned; enantiomer 1) [Compound 347] | –
9 | 2550 nM | 16.4 nM | C[C@H](O)C(=O)Nc1sc(S(=O)(=O)c2ccc(F)cc2C(F)(F)F)cc1C(N)=O (single isomer, unassigned; enantiomer 1) [Compound 348] | –
10 | > 1340 nM | 12.2 nM | CC(C)C(O)C(=O)Nc1sc(S(=O)(=O)c2ccc(F)cc2)cc1C(N)=O (single isomer, unassigned; enantiomer 1) [Compound 352] | > 1000 nM
11 | 1720 nM | 10.8 nM | CC(O)C(=O)Nc1sc(S(=O)(=O)c2ccc(F)cc2Cl)cc1C(N)=O (single isomer, unassigned; enantiomer 1) [Compound 353] | –
12 | 1820 nM | 10.5 nM | CCc1ccccc1S(=O)(=O)c1cc(C(N)=O)c(NC(=O)C(C)O)s1 (stereo not shown) [Compound 312, 5-(2-Ethyl-benzenesulfonyl)-2-(2-hydroxy-propionylamino)-thiophene-3-carboxylic acid amide] | –
13 | 2930 nM | 38.3 nM | CC(O)C(=O)Nc1sc(S(=O)(=O)c2c(F)cccc2F)cc1C(N)=O (stereo not shown) [Compound 313, 5-(2,6-Difluoro-benzenesulfonyl)-2-(2-hydroxy-propionylamino)-thiophene-3-carboxylic acid amide] | –
14 | 458 nM | 7.5 nM | C[C@H](O)C(=O)Nc1sc(S(=O)(=O)c2c(Cl)cccc2Cl)cc1C(N)=O [Compound 314, 5-(2,6-Dichloro-benzenesulfonyl)-2-((S)-2-hydroxy-propionylamino)-thiophene-3-carboxylic acid amide] | –
15 | – | 19.6 nM | C[C@H](O)C(=O)Nc1sc(S(=O)(=O)c2ccc(OC(F)(F)F)cc2F)cc1C(N)=O [Compound 444, 5-[2-fluoro-4-(trifluoromethoxy)phenyl] sulfonyl-2-[[(2S)-2-hydroxypropanoyl]amino] thiophene-3-carboxamide] | –
16 | – | 19.6 nM | C[C@H](O)C(=O)Nc1sc(S(=O)(=O)c2ccc(C(F)(F)F)cc2F)cc1C(N)=O [Compound 445, 5-[2-fluoro-4-(trifluoromethyl)phenyl] sulfonyl-2-[[(2S)-2-hydroxypropanoyl]amino] thiophene-3-carboxamide] | –
